The structures appear in SMILES notation. Several values for one entry are separate records, joined by “and”; a condition that tells them apart may be missing. Equal values may be shown once. Entries after “also recorded” stand apart in the source; their conditions may differ. Read-outs that look alike come from different tables or passages of the source.

In test [1] the target is TrmE (Escherichia coli, UniProt P25522). Put plainly: DRaCALA Kd determination, purified TrmE. The note with it: in the presence of magnesium, read-out: apparent Kd, TrmE. The test is classed as binding, E. coli.
Sequence of TrmE (P25522 whole entry): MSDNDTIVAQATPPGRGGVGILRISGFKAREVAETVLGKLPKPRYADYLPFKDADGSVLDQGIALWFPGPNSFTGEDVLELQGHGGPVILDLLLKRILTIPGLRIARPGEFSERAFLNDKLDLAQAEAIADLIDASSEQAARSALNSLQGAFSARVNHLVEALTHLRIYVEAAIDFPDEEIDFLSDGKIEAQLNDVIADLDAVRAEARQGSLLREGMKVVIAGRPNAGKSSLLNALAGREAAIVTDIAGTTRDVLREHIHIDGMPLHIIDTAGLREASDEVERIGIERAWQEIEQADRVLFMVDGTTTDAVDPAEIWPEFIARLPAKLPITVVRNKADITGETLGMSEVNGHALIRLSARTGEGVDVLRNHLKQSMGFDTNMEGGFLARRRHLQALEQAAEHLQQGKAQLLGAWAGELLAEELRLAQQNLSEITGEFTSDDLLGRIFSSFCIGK
Description: For Kd measurements by DRaCALA, 2-fold serial dilutions from the highest possible concentrations of each purified protein were prepared in binding buffer B, and approximately 2 nM concentrations of α-^32P-labeled ppGpp, pppGpp, GTP, and GDP were added. The mixtures were incubated for 5 min at RT before spotting of 2 µl of the reaction mixtures onto nitrocellulose membranes. […] For competition assays, purified proteins at the specified concentrations were incubated with 2 nM [α-^32P]ppGpp or [α-^32P]pppGpp in the presence of 100 μM competitor nucleotides in binding buffer B. The reaction mixtures were incubated for 5 min at RT, 2 µl was spotted onto nitrocellulose membranes, and the values corresponding to the bound fractions were determined. EDTA was added at excess concentrations as specified for each case.
Test [2] has as its target T1, NudG (Escherichia coli, UniProt P77788).
T1 construct: expressed in transfected cells; host or cells: E. coli ASKA collection strain, IPTG-induced, whole-cell lysate
Put plainly: In vitro cleavage assay (TLC), NudG. The test is classed as biochemical, E. coli. The note with it: purified NudG, buffer B with 10 mM MgCl2, TLC. The method, then: The purified His6-MutT and His6-NudG proteins were tested for their relative levels of cleavage of ppGpp compared to those seen with their native substrates. For this, a 1 μM concentration of each protein and a 10 nM concentration of [α-^32P]ppGpp were used together with 100 μM concentrations of cold competitors [ppGpp, GTP, ATP, 8-oxo-(d)GTP, 2-hydroxyl-(d)ATP] or 50 mM EDTA in buffer B. The samples were incubated at 30°C for 10 min and for 1 h before the reactions were stopped by adding 50 mM EDTA. The cleavage products were resolved by TLC as described above. The purified His6-NadR and His6-TrmE proteins were tested for their cleavage of both GTP and ppGpp. For cleavage of GTP, 10 μM concentrations of His6-MBP, His6-TrmE, and 20 μM His6-NadR proteins were used with 2 nM [α-^32P]GTP and 100 μM cold GTP in buffer B. For cleavage of ppGpp, 10 μM concentrations of His6-TrmE, His6-MBP, and His6-NadR proteins were used with 10 nM [α-^32P]ppGpp in buffer B. Of note, for His6-TrmE, another reaction was also performed in buffer B supplemented with 100 mM KCl. The reactions were performed at RT for 10 min and were stopped by adding 17% formic acid. The cleavage products were resolved by TLC as described above.
A 20 μM concentration of each of purified proteins MutT, NudG, NadR, TrmE, and MBP (as a negative control) was incubated with 100 μM ppGpp in buffer B (containing 40 mM Tris [pH 7.5], 100 mM NaCl, and 10 mM MgCl2) for 20 min at room temperature. Samples were snap-frozen on dry ice and analyzed with UPLC-MS afterward. All samples and buffers were stored at −80°C, thawed on ice, and kept at 4°C during analysis. For the analysis, a UPLC-quadrupole time of flight (UPLC-qTOF) method (Waters) was used. Analysis conditions were as follows: column, zic-HILIC (Merck Millipore) (150 by 2.1 mm, […], gradient elution, flow rate set to 0.3 ml/min); mobile phase A, 10 mM ammonium acetate (pH 5); mobile phase B, 90% acetonitrile with 10 mM ammonium acetate (pH 5). The gradient was set up as follows: min 0 to 2, 80% B; min 2 to 16, 80% B to 50% B; hold until min 20; injection volume, 4 µl. The detection conditions were as follows: photodiode array detector (PDA), […] (evaluated at 260 nm); MS, ionization; electrospray ionization (ESI+), scan, 200 to 800 m/z with lock mass correction. Analytes were identified by their accurate mass and retention time data for a known standard dissolved in used buffer (for the chemicals of the same nominal masses). These standards were either synthesized and their structures confirmed by nuclear magnetic resonance (NMR) (for ppGp, pGpp, and pGp) or purchased (ppGpp was purchased from Jena Biocsience and GTP from Sigma-Aldrich).

Test [3] addresses Hpt (Escherichia coli, UniProt P0A9M2). Also noted: method as in ref 29-32 (Table S1 refs 1, 2). To be noted: ref 29-32 (Table S1 refs 1, 2); cited from earlier work.
Test [4] concerns the target T2, UshA (Escherichia coli, UniProt P07024).
T2 sequence (P07024 26-550): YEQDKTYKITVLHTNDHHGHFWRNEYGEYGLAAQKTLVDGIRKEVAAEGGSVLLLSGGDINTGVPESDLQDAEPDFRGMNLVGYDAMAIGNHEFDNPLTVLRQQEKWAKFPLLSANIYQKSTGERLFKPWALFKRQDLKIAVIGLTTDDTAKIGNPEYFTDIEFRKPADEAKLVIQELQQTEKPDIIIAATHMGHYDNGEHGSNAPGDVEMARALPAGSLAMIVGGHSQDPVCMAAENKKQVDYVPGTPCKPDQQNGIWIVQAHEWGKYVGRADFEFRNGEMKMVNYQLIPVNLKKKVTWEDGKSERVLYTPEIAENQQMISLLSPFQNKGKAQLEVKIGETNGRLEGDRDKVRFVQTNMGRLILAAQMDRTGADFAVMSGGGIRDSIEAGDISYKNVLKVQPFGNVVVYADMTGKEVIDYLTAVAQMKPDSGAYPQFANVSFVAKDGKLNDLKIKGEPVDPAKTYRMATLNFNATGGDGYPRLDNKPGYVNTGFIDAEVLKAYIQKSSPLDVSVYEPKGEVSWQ
Put plainly: DRaCALA competition assay, lysate with overexpressed UshA. Format: binding. To be noted: cell lysate, 2 nM hot (p)ppGpp, 100 µM cold competitor. As to the method:
Bacterial cells were collected and frozen at −80°C.

Test [5] concerns the target T3, ObgE (Escherichia coli, UniProt P42641). Nature of the test: DRaCALA Kd determination, purified ObgE. The test is classed as binding, E. coli. The note with it: 2 nM 32P-labeled ligand, read-out: apparent Kd, ObgE (converted).
Description: (§1) For Kd measurements by DRaCALA, 2-fold serial dilutions from the highest possible concentrations of each purified protein were prepared in binding buffer B, and approximately 2 nM concentrations of α-^32P-labeled ppGpp, pppGpp, GTP, and GDP were added. The mixtures were incubated for 5 min at RT before spotting of 2 µl of the reaction mixtures onto nitrocellulose membranes. The fractions of bound ligand and the apparent Kd values were calculated as previously described ([37]).
The target in test [6] is PPX. Also noted: method as in ref 35 (Table S1 ref 20). To be noted: competitive; ref 35 (Table S1 ref 20); read-out: inhibitory constant Ki, PPX; cited from earlier work.
The target of test [7] is RF3 (PrfC) (Escherichia coli, UniProt P0A7I4). Nature of the test: DRaCALA Kd determination, purified RF3. Format: binding, E. coli. To be noted: 2 nM 32P-labeled ligand, read-out: apparent Kd, RF3 (PrfC).
Sequence of RF3 (PrfC) (P0A7I4 whole entry): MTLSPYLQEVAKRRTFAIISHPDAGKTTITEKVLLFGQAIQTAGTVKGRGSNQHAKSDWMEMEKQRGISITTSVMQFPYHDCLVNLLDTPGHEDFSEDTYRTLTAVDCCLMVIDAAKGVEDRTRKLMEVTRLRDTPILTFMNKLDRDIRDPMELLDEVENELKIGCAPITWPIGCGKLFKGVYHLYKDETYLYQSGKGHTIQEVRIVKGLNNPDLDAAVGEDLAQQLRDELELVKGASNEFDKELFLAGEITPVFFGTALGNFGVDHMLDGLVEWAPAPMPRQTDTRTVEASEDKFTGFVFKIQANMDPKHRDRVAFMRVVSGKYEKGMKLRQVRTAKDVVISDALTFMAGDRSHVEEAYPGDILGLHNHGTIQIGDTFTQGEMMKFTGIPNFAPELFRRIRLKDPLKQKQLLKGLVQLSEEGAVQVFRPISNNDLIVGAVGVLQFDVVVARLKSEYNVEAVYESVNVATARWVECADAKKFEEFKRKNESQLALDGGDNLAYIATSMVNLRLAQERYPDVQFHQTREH
Description: as §1
The target in test [8] is HprT. Also noted: method as in ref 39 (Table S1 ref 4). To be noted: ref 39 (Table S1 ref 4); read-out: Kd, S. aureus HprT; cited from earlier work.
In test [9] the target is DerG1 (residues 2 to 184) (Escherichia coli, UniProt P0A6P5). Nature of the test: DRaCALA Kd determination, Der G1 domain. The test is classed as binding, E. coli. To be noted: 2 nM 32P-labeled ligand, read-out: apparent Kd, DerG1.
Sequence of DerG1 (residues 2 to 184) (P0A6P5 2-184): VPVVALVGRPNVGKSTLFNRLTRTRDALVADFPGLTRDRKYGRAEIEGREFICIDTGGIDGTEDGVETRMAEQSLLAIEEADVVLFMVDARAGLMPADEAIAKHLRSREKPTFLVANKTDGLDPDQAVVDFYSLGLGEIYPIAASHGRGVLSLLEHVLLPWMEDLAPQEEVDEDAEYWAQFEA
Description: For Kd measurements by DRaCALA, 2-fold serial dilutions from the highest possible concentrations of each purified protein were prepared in binding buffer B, and approximately 2 nM concentrations of α-^32P-labeled ppGpp, pppGpp, GTP, and GDP were added. The mixtures were incubated for 5 min at RT before spotting of 2 µl of the reaction mixtures onto nitrocellulose membranes. The fractions of bound ligand and the apparent Kd values were calculated as previously described ([37]). For competition assays, purified proteins at the specified concentrations were incubated with 2 nM [α-^32P]ppGpp or [α-^32P]pppGpp in the presence of 100 μM competitor nucleotides in binding buffer B. The reaction mixtures were incubated for 5 min at RT, 2 µl was spotted onto nitrocellulose membranes, and the values corresponding to the bound fractions were determined. EDTA was added at excess concentrations as specified for each case.
Test [10] addresses LdcC. Also noted: method as in Table S1 (19). The note with it: ref Table S1 (19); cited from earlier work.
For test [11], the target named is EF-G. Also noted: method as in Table S1 (9). The note with it: ref Table S1 (9), cited from earlier work.
Test [12] addresses T3, ObgE. Also noted: method as in Table S1 (7). To be noted: ref Table S1 (7); cited from earlier work.

T3 sequence (P42641 whole entry): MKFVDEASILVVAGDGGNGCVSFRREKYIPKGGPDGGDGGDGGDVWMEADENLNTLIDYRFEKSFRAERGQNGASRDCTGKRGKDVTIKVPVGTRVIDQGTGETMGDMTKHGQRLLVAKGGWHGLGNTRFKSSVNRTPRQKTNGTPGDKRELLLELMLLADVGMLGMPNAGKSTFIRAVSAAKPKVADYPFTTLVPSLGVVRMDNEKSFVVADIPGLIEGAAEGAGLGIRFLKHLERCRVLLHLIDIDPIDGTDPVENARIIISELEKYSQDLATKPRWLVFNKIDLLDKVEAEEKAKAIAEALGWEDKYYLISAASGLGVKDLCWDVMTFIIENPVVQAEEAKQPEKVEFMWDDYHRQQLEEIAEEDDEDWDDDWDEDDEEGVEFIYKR
T1 sequence (P77788 whole entry): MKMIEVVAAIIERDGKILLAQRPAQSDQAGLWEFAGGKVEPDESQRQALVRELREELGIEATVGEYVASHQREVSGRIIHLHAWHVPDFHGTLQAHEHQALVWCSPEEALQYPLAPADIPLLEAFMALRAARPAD
Sequence of Hpt (P0A9M2 whole entry): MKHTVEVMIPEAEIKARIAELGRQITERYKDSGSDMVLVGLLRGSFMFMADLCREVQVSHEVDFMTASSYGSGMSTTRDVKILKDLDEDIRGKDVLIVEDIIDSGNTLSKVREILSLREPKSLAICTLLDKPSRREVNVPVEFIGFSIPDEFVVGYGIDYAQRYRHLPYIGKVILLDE

`Nc1nc2c(ncn2[C@@H]2O[C@H](COP(=O)(O)OP(=O)(O)O)[C@@H](OP(=O)(O)OP(=O)(O)O)[C@H]2O)c(=O)[nH]1` [ppGpp, guanosine tetraphosphate]: the Kd in test [1] was 1.7 ± 0.5 µM; in [5], 1.8 ± 0.3 µM; in test [7], 0.82 ± 0.09 µM; in [8] it was 0.37 µM; in [9], 5.9 ± 2.5 µM; in test [10] it was 0.1 to 0.5 µM. Also, the “cleavage by NudG” value in [2] was “degraded into smaller products; also recorded: relatively weak ppGpp cleavage activity”. In test [3], the IC50 is ~85 µM and 85 µM. The “competition for UshA-bound (p)ppGpp” value in test [4] was “could outcompete the bound, radiolabeled (p)ppGpp”. In addition, the Ki was 200 µM in test [6], 0.7 µM in [11] (in the absence of EF-Ts), 40 µM in test [11] (in the presence of EF-Ts) and 1.6 µM in test [12].

Take `Nc1nc2c(ncn2[C@@H]2O[C@H](COP(=O)(O)OP(=O)(O)OP(=O)(O)O)[C@@H](OP(=O)(O)OP(=O)(O)O)[C@H]2O)c(=O)[nH]1` [pppGpp, guanosine pentaphosphate]: the Kd in test [1] was 2.2 ± 0.9 µM; in [5] it was 6.6 µM; in test [7] it was 15 ± 5 µM; in [8], 0.75 µM; in test [9], 4.7 ± 2.3 µM. Further, the “cleavage by NudG” value in test [2] is listed as “degraded into smaller products”. For the same molecule, the “competition for UshA-bound (p)ppGpp” value in [4] is reported as “could outcompete the bound, radiolabeled (p)ppGpp”. For the same molecule, the Ki in test [6] was 10 µM.

These data come from paper PMC5845004, “Novel (p)ppGpp Binding and Metabolizing Proteins of Escherichia coli” (mBio, 2018).
